Here are results for 26 compounds from ChEMBL document CHEMBL4382228, “Small molecules as inhibitors of PCSK9: Current status and future challenges” (Eur J Med Chem, 2019).

For assay [1], the system named is Hepatocyte. Briefly: Inhibition of PCSK9 mRNA expression in mouse primary hepatocytes at 2.5 uM after 24 hrs relative to control. The format is functional.
For assay [2], the system named is HepG2. In words: Inhibition of PCSK9 mRNA expression in human HepG2 cells after 24 hrs by SYBR Green I dye-based qRT-PCR analysis. The format is functional, cell-based. The note with it: HepG2, 24 h. (Real-time PCR tracks product formation cycle by cycle.)
In assay [3] the target is 80S Ribosome. Briefly: Binding affinity to 80S ribosome in human HuH7 cells expressing human C-terminal V5/6-His-tagged PCSK9 assessed as inhibition of PCSK9 secretion after 16 to 24 hrs by AlphaLISA method. The format is cell-based. The note with it: huh-7. For orientation: Alpha assays give light when donor and acceptor beads are brought close together.
The subject of assay [4] is CHO-K1. Briefly: Cytotoxicity against CHOK1 cells expressing human recombinant full length ProLabel-tagged PCSK9 after overnight incubation by CellTiter blue assay. The format is cell-based. The note with it: Cricetulus griseus. Background: Alamar Blue is a resazurin reagent that responds to reducing activity.
Assay [5] concerns the target T1, Proprotein convertase subtilisin/kexin type 9 (Homo sapiens, UniProt Q8NBP7). In words: Inhibition of human recombinant PCSK9 expressed in CHO-K1 cells assessed as alkaline phosphatase secretion incubated overnight and measured after 3 days by HTS assay. The format is cell-based.
Assay [6] deals with T1, Proprotein convertase subtilisin/kexin type 9. In words: Inhibition of human recombinant full length ProLabel-tagged PCSK9 expressed in CHO-K1 cells incubated overnight and measured after 3 days by chemiluminescence assay. The format is cell-based.
For assay [7] the target is unchanged. In words: Inhibition of human recombinant full length ProLabel-tagged PCSK9 expressed in CHO-K1 cells incubated overnight and measured after 3 days by HTS assay. The format is cell-based.
In assay [8] the test system is Mus musculus. In words: Decrease in cholesterol level in C57BL/6 mouse fed with high fat diet at 10 mg/kg, po administered daily for 5 days relative to control. The format is functional. More on the design: scale not given: the % may be the effect or the level left.
Assay [9] has as its target T1, Proprotein convertase subtilisin/kexin type 9. In words: Binding affinity to PCSK9 (unknown origin) by SPR assay.
The subject of assay [10] is Hepatocyte. In words: Inhibition of PCSK9 mRNA expression in mouse primary hepatocytes at 2 uM after 24 hrs relative to control. The format is functional.
Assay [11] relates to HepG2. In words: Inhibition of PCSK9 mRNA expression in human HepG2 cells at 20 uM after 24 hrs by qRT-PCR analysis relative to control. The note with it: HepG2, 24 h. The format is functional.
Assay [12] concerns HepG2. In words: Inhibition of PCSK9 mRNA expression in human HepG2 cells after 24 hrs by qRT-PCR analysis. The format is functional, cell-based. Conditions: HepG2, 24 h.
Assay [13] deals with HepG2. In words: Inhibition of PCSK9 mRNA expression in human HepG2 cells by SYBR Green I dye-based qRT-PCR analysis. The format is functional, cell-based.
Assay [14] deals with T1, Proprotein convertase subtilisin/kexin type 9. In words: Inhibition of wild type His-tagged PCSK9 (unknown origin) binding to recombinant LDLR-AB domain (unknown origin) after 2 hrs by fluorescence assay.
Assay [15] has the same target. In words: Inhibition of PCSK9 in human HepG2 cells assessed as increase in LDL uptake after 24 hrs by fluorescence assay. The format is cell-based.
Assay [16] has as its system Huh-7. Briefly: Inhibition of PCSK9 mRNA expression in human HuH7 cells at 2 uM after 24 hrs by qRT-PCR assay relative to control. The format is functional. The note with it: Huh-7, 24 h.
For assay [17], the system named is Huh-7. In words: Increase in LDLR mRNA expression in human HuH7 cells at 2 uM after 24 hrs by qRT-PCR assay relative to control. The format is functional.
The test system of assay [18] is Huh-7. In words: Increase in LDLR protein expression in human HuH7 cells at 2 uM after 24 hrs by immunoblotting assay relative to control. The format is functional.

T1 sequence (Q8NBP7 31-152 limits assumed): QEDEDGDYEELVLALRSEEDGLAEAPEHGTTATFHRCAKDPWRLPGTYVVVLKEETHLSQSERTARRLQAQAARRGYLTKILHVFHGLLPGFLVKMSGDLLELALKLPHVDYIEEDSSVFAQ
T1 sequence (Q8NBP7 153-692 limits assumed): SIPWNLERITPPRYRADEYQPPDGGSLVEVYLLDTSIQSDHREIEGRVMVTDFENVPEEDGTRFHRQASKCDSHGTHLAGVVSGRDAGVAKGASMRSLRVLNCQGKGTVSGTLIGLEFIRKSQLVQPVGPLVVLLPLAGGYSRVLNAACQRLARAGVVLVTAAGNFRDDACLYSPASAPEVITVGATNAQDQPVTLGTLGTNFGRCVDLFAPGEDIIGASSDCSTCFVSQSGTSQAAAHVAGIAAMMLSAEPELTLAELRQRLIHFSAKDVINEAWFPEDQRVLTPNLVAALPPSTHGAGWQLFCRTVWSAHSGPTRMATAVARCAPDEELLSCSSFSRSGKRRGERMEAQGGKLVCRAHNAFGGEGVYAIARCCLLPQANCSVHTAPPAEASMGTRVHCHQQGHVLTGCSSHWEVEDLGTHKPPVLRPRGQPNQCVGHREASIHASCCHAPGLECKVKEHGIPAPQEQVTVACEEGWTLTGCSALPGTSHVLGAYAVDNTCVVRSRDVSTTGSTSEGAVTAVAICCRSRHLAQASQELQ

A word on the inhibition: it is the drop in the measured response relative to a control, in per cent. `COc1cc2c(cc1-c1c(C)noc1C)ncc1[nH]c(=O)n([C@H](C)c3ccccn3)c12`: the inhibition at 2.5 µM in assay [1] is above 90%. As usually defined, the IC50 is the concentration that gives 50% inhibition. For the compound `COc1cc([C@@H]2O[C@H](c3cc(O)c(OC)c(OC)c3)[C@@H](C)[C@@H]2C)ccc1O`, 3.15 µM corresponded to half-maximal inhibition in [2] (IC50). Regarding `O=C(c1ccc(-n2nnc3cccnc32)cc1)N(c1ncccc1Cl)[C@@H]1CCCNC1`, in [3], the IC50 stood at 0.3 µM. In the case of `COc1ccc(CCC(=O)N(c2nccc3ccccc23)[C@@H]2CCCNC2)cc1`, the IC50 in assay [4] was above 10 µM; in assay [5], above 10 µM; in assay [6], below 10 µM; in assay [7], 4.8 µM.

For the compound `Cc1cc(C(=O)C2=C(O)C(=O)N(CCCN3CCOCC3)C2c2ccncc2)ccc1OCc1ccccc1` (configuration not stated), the Activity in assay [8] is 20 - 38%. Turning to `CCN(CC)C(=O)c1ccc(NC(=O)CSc2nnc(-c3cccs3)n2C2CC2)cc1`, the Activity in assay [8] was 20 - 38%. Usually Kd stands for the free concentration of one partner at which half of the binding sites on the other are occupied at equilibrium, for simple one-to-one binding. Compound `CC(C)C[C@H](C(=O)N1CCN([C@@H](CC(N)=O)C(=O)N[C@@H](CCCNC(=N)N)C(=O)N[C@H]2CCOC2=O)CC1)N1C(=O)N[C@@H](CC(=O)O)C1=O` displayed a Kd in [9] of 24.8 µM. `Cc1sc2c(c1C)C(c1ccccc1)=N[C@@H](CC(=O)OC(C)(C)C)c1nnc(C)n1-2` came in with an inhibition at 2 µM in assay [10] above 90%. As to `COc1cc(O)cc2c1C(=O)[C@H](O)[C@@H](c1ccccc1O)O2`, the inhibition at 20 µM in assay [11] amounted to 84.4%. For `CC(C)C[C@@H](C(=O)N[C@H](CCCCN)C(=O)N[C@H]1CCOC1=O)N1CCN(C(=O)[C@H](CS)N2C(=O)N[C@H](CC(N)=O)C2=O)CC1`, the equilibrium dissociation constant (Kd) in assay [9] amounted to 41.2 µM.

Turning to `O=C(Nc1ccc(-c2nc3ccccc3o2)cc1)c1ccc(NC(=O)c2cc3ccccc3o2)cc1`, in [8], the Activity is on record as 20 - 38%. For orientation: EC50 means the concentration at which the effect is half-maximal. Regarding `CN1C(=O)c2cc(NC(=O)c3ccc(C(F)(F)F)cc3)ccc2OC[C@@H]2O[C@H](CC(=O)NC3Cc4ccccc4C3)CC[C@@H]21`, a half-maximal response in [12] (EC50) required 0.36 µM.

For `CC(C)C[C@H](C(=O)N1CCN([C@@H](CC#N)C(=O)N[C@@H](CCCNC(=N)N)C(=O)N[C@H]2CCOC2=O)CC1)N1C(=O)N[C@@H](CC(=O)O)C1=O`, the Kd in assay [9] was 35.8 µM. `COC(=O)c1c(C)cc(O[C@@H]2O[C@H](CO)[C@@H](O)[C@H]2O)c(OC)c1O` came in with an IC50 in assay [13] of 20.1 µM. `CC(C)[C@@H](C)/C=C/[C@@H](C)[C@H]1CCC2=C3[C@@H](O)[C@@H]4O[C@@]45C[C@@H](O)CC[C@]5(C)[C@H]3CC[C@@]21C`: the IC50 in [13] was determined as 8.23 µM. The compound `COc1cc2c(c(OC)c1OC)-c1c(cc3c(c1OC)OCO3)C[C@@H](C)[C@@](C)(O)C2` registered an IC50 in assay [2] of 1.1 µM.

Turning to `Cc1ccc(N2CCN(C(=O)c3ccc(NC(N)=O)cc3)C(c3ccccc3)C2)cc1Cl` (configuration not stated), in assay [8], the Activity is given as 20 - 38%.

For the compound `Cn1cccc1-c1ccc(-c2ccc(-c3ccc(-c4ccccc4)n3C)n2C)n1C`, in assay [14], the IC50 was 11.2 µM. Besides, the EC50 in [15] stood at 6.04 µM. Regarding `CC(=O)Nc1ccc(C(=O)N2CCN(c3ccc(C)c(Cl)c3)CC2c2ccccc2)cc1` (configuration not stated), the Activity in assay [8] is given as 20 - 38%.

With `COc1cc2c(c(O)c1O)COC2=O`, inhibition in assay [13] was half-maximal at 7.18 µM (IC50). On to `C/C=C(/C)C(=O)Oc1c2c(cc3c1-c1c(cc(OC)c(OC)c1OC)C[C@](C)(O)[C@@H](C)C3)OCO2`, for which half-maximal inhibition in [2] (IC50) required 0.36 µM.

`Nc1ncnc2c1ncn2[C@@H]1O[C@H](CO)[C@@H](O)[C@H]1O` [ADENOSINE] registered an IC50 in assay [13] of 18.5 µM. `O=c1c(O[C@@H]2O[C@H](CO)[C@@H](O)[C@H](O)[C@H]2O)c(-c2ccc(O)c(O)c2)oc2cc(O)cc(O)c12` [ISOQUERCETIN] came in with an inhibition at 2 µM in assay [16] of 20 to 30%. The Activity is recorded as 60% in [17] and 300 - 400% in assay [18].

In turn, `CC(C)=CCc1c(O)cc(-c2cc3ccc(O)cc3o2)cc1O` [MORACIN C] came in with an IC50 in assay [2] of 16.8 µM.

With `COc1c2c(cc3c1-c1c(cc4c(c1OC)OCO4)C[C@H](C)[C@H](C)C3)OCO2` [SCHISANDRIN C], the IC50 in [2] was determined as 3.85 µM.

Turning to `COc1cccc(O)c1-c1cc(=O)c2c(O)c(OC)c(OC)c(OC)c2o1` [SKULLCAPFLAVONE II], 20 µM produced 42.4% inhibition in assay [11].
